Where a name gives a salt, the structure may show the parent alone. Read-outs that look alike come from different tables or passages of the source.
Tests used:
[1] = in vivo; design: species or system mice; settings: male, C57BL/6J, mouse, 30 mg/kg; for half-life: T1/2 (plasma)
Method: Adult male C57BL/6J mice (8–9 weeks, 23–27 g) were purchased from the Jackson Laboratory, Bar Harbor, ME, USA. Mice were housed in ventilated cages with controlled temperature and humidity, and a 12 h light/dark cycle. Food and water were available ad libitum, and animals were habituated to the experimental room for three days before the start of the study. All procedures were conducted according to a protocol approved by the Texas Tech University Health Sciences Center Institutional Animal Care and Use Committee (protocol 21039, approved on 26 July 2023). […] Plasma and brain samples were collected 5, 20, 60, 120, and 180 min after the drug administration. […] Mice were deeply anesthetized with isoflurane and decapitated, followed by blood collection in a microtube containing heparin. Plasma was obtained by centrifugation of the microtube for 10 min at 5000× g at 4 °C. The brains were quickly removed and delicately cleansed on filter paper with sterile saline, the surface vasculature was removed using gauze tipped in saline, and the forebrains were quickly frozen using dry ice. Plasma and brain samples were stored at −80 °C until bioanalysis. The brain samples were homogenized at 1:10 (w/v) in LC-MS-grade water using BioSpec Tissue-Tearor Homogenizer. The plasma sample was diluted 10-fold (v/v) in LC-MS-grade water. The plasma samples and brain homogenates were subjected to protein precipitation using ice-cold acetonitrile (1:4 ratio) containing 0.1% formic acid along with the IS (10 ng/mL). The samples underwent continuous vortexing for 5 min, followed by centrifugation at 12,800× g at 4 °C. The resulting clear supernatant was used for injection into the mass spectrometer. LC-MS/MS analysis was conducted using a QTRAP 5500 mass spectrometer (SCIEX, Foster City, CA, USA) connected with a SHIMADZU Prominence LC system (Kyoto, Japan), consisting of an LC-30AD solvent delivery unit, a DGU-20A3R degassing unit, a CTO-30A column oven, and a SIL-30AC autosampler. Chromatographic separation was achieved on an EVO-C18 100Å column (1.7 µm i.d., 50 × 2.1 mm). The mobile phase comprised 0.1% formic acid in water (A) and 0.1% formic acid in acetonitrile (B) at a flow rate of 0.3 mL/min. […] The autosampler and column temperatures were 4 °C and 40 °C, respectively. The injection volume was 2 μL. The mass spectrometric detection of the analytes was executed using multiple reaction monitoring (MRM) with an electrospray ionization (ESI) source in positive ion mode. The conditions were curtain gas, 35 psi; ion spray voltage, 5500 V; temperature, 500 °C; ion source gas 1, 50 psi; and ion source gas 2, 55 psi. […] For milnacipran-d10, which served as the IS, the MH^+ was monitored at m/z 257.2, whereas a fragment at m/z 110.2 was monitored as the product ion. […] Data acquisition and processing were carried out using Sciex Analyst (version 1.7) and MultiQuant software (version 3.0), respectively. The pharmacokinetic parameters were assessed using standard non-compartmental analysis. Microsoft Excel and GraphPad Prism 8.4.3 software were used for calculations and graphical presentation. The apparent first-order terminal rate constant (Kel) with 95% confidence interval (95% CI) was obtained in Prism by linear regression of log-transformed plasma concentration versus time data. The linear trapezoidal model was used for both IV and IP administration to determine area under the curve from time 0 to 3 h (AUC0-3). AUC0-∞ (area under the curve from time 0 to infinity) was obtained by extrapolation to infinity, using the mean concentration at the terminal time point and Kel. The standard errors (SE) of AUC0-3 and AUC0-∞ were calculated applying Bailer’s method for sparse data. Cmax and Tmax values after IP administration are based on actual measurements for the noted sampling time-points. The terminal T1/2 with CI was calculated as 0.693/Kel. […] For the IV route, Vd was calculated using the formula Dose/C0, and clearance (Cl) was determined as Vd*Kel. […]

[2] = human, in vivo, cited from earlier work
[3] = human; cited from earlier work
[4] = cited from earlier work

For `CCN(CC)C(=O)C1(c2ccccc2)CC1CN` (racemic) [milnacipran, (±)-[1R(S), 2S(R)]-2-(aminomethyl)-N, N-diethyl-1-phenylcyclopropanecarboxamide hydrochloride], which bioavailability [1] is on record?
The bioavailability was 92.5%.

And the AUC(0-inf) ([1]; ip)?
Its AUC(0-inf) is 11000 ng·h/mL.

What about the AUC(0-t) ([1]; ip) of the same compound?
The AUC(0-t) was 10300 ng·h/mL.

What about the Cmax ([1]; ip) of the same compound?
The Cmax was 8530 ± 690 ng/mL.

And the “Kterm (plasma)” value ([1]; ip)?
Its value is 0.016 (0.013 to 0.019) min^−1.

What about the MRT ([1]; ip) of the same compound?
The MRT was 58.3 min.

What about the Tmax ([1]; ip) of the same compound?
The Tmax was 5 min.

What about the Vd ([1]; ip) of the same compound?
The Vd was 3.37 L/kg.

And the clearance ([1]; ip)?
The clearance was 39.5 mL/min/kg.

And the half-life ([1]; ip)?
Its half-life is 42.5 min.

And the Tmax ([1]; ip, Tmax (brain))?
The Tmax was ~60 min.

What about the AUC(0-inf) ([1]; iv) of the same compound?
The AUC(0-inf) was 11800 ng·h/mL.

What about the AUC(0-t) ([1]; iv) of the same compound?
The AUC(0-t) was 10400 ng·h/mL.

And the “Kterm (plasma)” value ([1]; iv)?
The value was 0.012 (0.011 to 0.013) min^−1.

And the MRT ([1]; iv)?
The MRT was 57 min.

And the “T1/2 (plasma)” value ([1]; iv)?
Its value is 59.2 (54.4 to 64.1) min.

What about the Vd ([1]; iv) of the same compound?
Its Vd is 3.65 L/kg.

What about the clearance ([1]; iv) of the same compound?
The clearance was 42.7 mL/min/kg.

And the half-life ([1]; iv)?
Its half-life is 59 min.

And the Tmax ([1]; iv, Tmax (brain))?
The Tmax was ~60 min.

What about the bioavailability ([2]; po) of the same compound?
Its bioavailability is ~ 90%.

What about the “time to peak plasma concentrations” value ([2]; po) of the same compound?
The value was 2 to 4 h.

What about the terminal elimination half-life [2] of the same compound?
The terminal elimination half-life was 360 to 600 min.

And the volume of distribution [2]?
Its volume of distribution is 5.3 L/kg.

And the Plasma protein binding [3]?
The Plasma protein binding was “around 13%”.

What about the half-life ([4]; rat, in vivo, iv, 4.5 mg/kg) of the same compound?
The half-life was 402 min.

And the half-life ([4]; rats, intranasal, 20 mg/kg)?
The half-life was 67.9 min.

Source: PMC10819729 (Pharmaceutics, 2023)
